Assay results from patent publication US12180434B2, “Spiro compounds as malodor counteracting ingredients” (Firmenich SA, priority 2017, dated 2024).
Counter-ions that a name gives are not always drawn. Like-named read-outs stand apart in the source and are kept apart here.

Molecular target: T1, OR51E1 olfactory receptor (Homo sapiens, UniProt Q8TCB6)
T1 construct: expressed in transfected cells
T1 sequence (Q8TCB6 1-318): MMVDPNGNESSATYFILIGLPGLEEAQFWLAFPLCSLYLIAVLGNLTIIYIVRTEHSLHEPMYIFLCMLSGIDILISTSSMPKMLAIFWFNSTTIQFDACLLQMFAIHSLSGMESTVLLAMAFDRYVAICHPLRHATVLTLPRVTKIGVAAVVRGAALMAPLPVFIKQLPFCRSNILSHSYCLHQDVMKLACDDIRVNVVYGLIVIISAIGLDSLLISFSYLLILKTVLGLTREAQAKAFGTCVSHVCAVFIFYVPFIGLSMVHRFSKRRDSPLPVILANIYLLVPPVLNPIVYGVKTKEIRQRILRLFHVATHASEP
Assay: Inhibitory dose-response assay in a cell line expressing the butyric acid olfactory receptor OR51E1
Assay type: cell-based

[1] = highly stringent screening conditions, cells treated with 67 μM butyric acid (EC94), read-out: calculated IC50, inhibitor of the butyric acid olfactory receptor OR51E1

SMILES | IC50 [1] [µM] | IC50 (table, butyric acid at EC80, EC87, EC90, or EC100, read-out: IC50) [µM]
CC(=O)O[C@@H]1C(C)(C)CCC[C@]12CC=C(C)C[C@H]2C (racemic) [Compound 1, (1RS,6RS,11RS)-2,2,9,11-tetramethylspiro[5.5]undec-8-en-1-yl acetate] | 45.2 | –
CC(=O)O[C@H]([C@H]1CCCC[C@@H]1C)C(C)(C)C (racemic) [Compound 14, (1RS)-2,2-dimethyl-1-[(1SR,2SR)-2-methylcyclohexyl]propyl acetate] | 68.6 | 170
CC(=O)OC1C(C)(C)CCCC12CC(C)=C(C)C2 (centres unmarked) [Compound 2, (2,3,9,9-tetramethylspiro[4.5]dec-2-en-10-yl) acetate] | 18.6 | –
CC(=O)OC1C(C)(C)CCCC12C(C)C=CCC2C (centres unmarked) [Compound 3, (1,5,10,10-tetramethylspiro[5.5]undec-3-en-11-yl) acetate] | 4.74 | –
CC1CC=CCC12CCCC(C)(C)C2OC=O (centres unmarked) [Compound 5, (5,10,10-trimethylspiro[5.5]undec-2-en-11-yl) formate] | 46.9 | –
CC(=O)OC1C(C)(C)CCCC12CC=C(C)CC2C (centres unmarked) [Compound 6, (3,5,10,10-tetramethylspiro[5.5]undec-2-en-11-yl) acetate] | 78.1 | –
CC(=O)OC1C(C)(C)CCCC12CC=CC2 (centres unmarked) [Compound 7, (9,9-dimethylspiro[4.5]dec-2-en-10-yl) acetate] | 84.3 | –
COC1C(C)(C)CCCC12CC=CC2 (centres unmarked) [Compound 8, 10-methoxy-9,9-dimethylspiro[4.5]dec-2-ene] | 193 | –
CC1CCCCC12CCCCC2O (centres unmarked) [Compound 12, 11-methylspiro[5.5]undecan-5-ol] | 805 | –
CC(=O)OC(C1C(C)C=C(C)CC1C)C(C)(C)C (centres unmarked) [Compound 17, [2,2-dimethyl-1-(2,4,6-trimethylcyclohex-3-en-1-yl)propyl]acetate] | 43.4 | –
